The compounds below were run against human PDE4D catalytic domain (UniProt no. Q08499) (Homo sapiens (Human), UniProt Q08499) (assay: PDE4 assay (TR-FRET, FAM-cAMP cleavage)). Settings: human PDE4D catalytic domain; molar concentration giving 50% inhibition of substrate cleavage; read-out: PDE4 IC50 range.
Format: biochemical
Procedure, shortened: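 Read-out is time-resolved FRET from Tb donor to FAM-AMP captured on trivalent-metal nanoparticles added to stop the reaction. Substrate was a mix of plain and FAM-labelled cAMP, cleaved by human PDE4D catalytic domain ([…]) with titrated compound; IC50 ranges (nM) versus controls.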

Chain of human PDE4D catalytic domain (Q08499 380-740 limits assumed): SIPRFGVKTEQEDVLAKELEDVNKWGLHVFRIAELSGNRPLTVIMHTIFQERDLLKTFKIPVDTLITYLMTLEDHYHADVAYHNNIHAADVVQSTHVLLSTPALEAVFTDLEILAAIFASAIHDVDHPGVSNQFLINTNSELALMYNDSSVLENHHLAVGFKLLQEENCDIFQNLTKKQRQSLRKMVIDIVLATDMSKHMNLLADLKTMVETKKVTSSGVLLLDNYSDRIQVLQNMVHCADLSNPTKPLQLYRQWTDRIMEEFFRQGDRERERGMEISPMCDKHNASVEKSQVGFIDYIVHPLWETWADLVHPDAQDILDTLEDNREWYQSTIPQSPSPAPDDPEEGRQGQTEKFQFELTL

Compound	IC50 [µM]
CCc1nn(C[C@@H](C)COC(=O)c2cc(C#N)ccc2F)c2c1C(=O)NCC1(CCOCC1)C2 [Example 183, [(2R)-3-(3-ethyl-4-oxo-spiro[6,8-dihydro-5H-pyrazolo[4,3-c]azepine-7,4′-tetrahydropyran]-1-yl)-2-methyl-propyl] 5-cyano-2-fluoro-benzoate]	< 0.1
CCc1nn(C[C@@H](C)COC(=O)c2cccc(C(F)(F)F)c2Cl)c2c1C(=O)NCC1(CCOCC1)C2 [Example 235, [(2R)-3-(3-ethyl-4-oxo-spiro [6,8-dihydro-5H-pyrazolo[4,3-c]azepine-7,4′-tetrahydropyran]-1-yl)-2-methyl-propyl] 2-chloro-3-(trifluoromethyl)benzoate]	< 0.1
CCc1nn(CCCOC(=O)c2ccc(C(F)(F)F)cc2C(F)(F)F)c2c1C(=O)NCC1(CCOCC1)C2 [Example 135, 3-(3-ethyl-4-oxo-spiro[6,8-dihydro-5H-pyrazolo[4,3-c]azepine-7,4′-tetrahydropyran]-1-yl)propyl 2,4-bis(trifluoromethyl) benzoate]	< 0.1
CCc1nn(CCCOC(=O)c2ccc(C(F)(F)F)cc2)c2c1C(=O)NCC1(CCOCC1)C2 [Example 97, 3-(3-ethyl-4-oxo-spiro[6,8-dihydro-5H-pyrazolo[4,3-c]azepine-7,4′-tetrahydropyran]-1-yl)propyl 4-(trifluoromethyl)benzoate]	< 0.1
CCc1nn(C[C@@H](C)COC(=O)c2cccc(C#N)c2)c2c1C(=O)NCC1(CCOCC1)C2 [Example 167, [(2R)-3-(3-ethyl-4-oxo-spiro[6,8-dihydro-5H-pyrazolo[4,3-c]azepine-7,4′-tetrahydropyran]-1-yl)-2-methyl-propyl] 3-cyanobenzoate]	< 0.1
CCc1nn(C[C@@H](C)COC(=O)c2ccc(S(=O)(=O)N3CCCC3)cc2)c2c1C(=O)NCC1(CCOCC1)C2 [Example 245, [(2R)-3-(3-ethyl-4-oxo-spiro[6,8-dihydro-5H-pyrazolo[4,3-c]azepine-7,4′-tetrahydropyran]-1-yl)-2-methyl-propyl] 4-pyrrolidin-1-ylsulfonylbenzoate]	< 0.1
CCc1nn(CCCOC(=O)c2cc(OC)ccc2C(F)(F)F)c2c1C(=O)NCC1(CCOCC1)C2 [Example 119, 3-(3-ethyl-4-oxo-spiro[6,8-dihydro-5H-pyrazolo[4,3-c]azepine-7,4′-tetrahydropyran]-1-yl)propyl 5-methoxy-2-(trifluoromethyl)benzoate]	< 0.1
CCc1nn(CCCOC(=O)c2cccc(Cl)c2)c2c1C(=O)NCC1(CCOCC1)C2 [Example 41, 3-(3-ethyl-4-oxo-spiro[6,8-dihydro-5H-pyrazolo[4,3-c]azepine-7,4′-tetrahydropyran]-1-yl)propyl 3-chlorobenzoate]	< 0.1
CCc1nn(C[C@@H](C)COC(=O)c2ccc(C)c(C)c2)c2c1C(=O)NCC1(CCOCC1)C2 [Example 169, [(2R)-3-(3-ethyl-4-oxo-spiro[6,8-dihydro-5H-pyrazolo[4,3-c]azepine-7,4′-tetrahydropyran]-1-yl)-2-methyl-propyl] 3,4-dimethylbenzoate]	< 0.1
CCc1nn(CCCOC(=O)c2ccc(S(=O)(=O)CC)cc2)c2c1C(=O)NCC1(CCOCC1)C2 [Example 115, 3-(3-ethyl-4-oxo-spiro[6,8-dihydro-5H-pyrazolo[4,3-c]azepine-7,4′-tetrahydropyran]-1-yl)propyl 4-ethylsulfonylbenzoate]	< 0.1
CCc1nn(C[C@@H](C)COC(=O)c2ccc(S(=O)(=O)CC)cc2)c2c1C(=O)NCC1(CCOCC1)C2 [Example 227, [(2R)-3-(3-ethyl-4-oxo-spiro[6,8-dihydro-5H-pyrazolo[4,3-c]azepine-7,4′-tetrahydropyran]-1-yl)-2-methyl-propyl] 4-ethylsulfonylbenzoate]	< 0.1
CCc1nn(C[C@@H](C)COC(=O)c2cccc(S(C)(=O)=O)c2)c2c1C(=O)NCC1(CCOCC1)C2 [Example 213, [(2R)-3-(3-ethyl-4-oxo-spiro[6,8-dihydro-5H-pyrazolo[4,3-c]azepine-7,4′-tetrahydropyran]-1-yl)-2-methyl-propyl] 3-methylsulfonylbenzoate]	< 0.1
CCc1nn(C[C@@H](C)COC(=O)c2cccc(OC)c2F)c2c1C(=O)NCC1(CCOCC1)C2 [Example 190, [(2R)-3-(3-ethyl-4-oxo-spiro[6,8-dihydro-5H-pyrazolo[4,3-c]azepine-7,4′-tetrahydropyran]-1-yl)-2-methyl-propyl] 2-fluoro-3-methoxy-benzoate]	< 0.1
CCc1nn(CCCOC(=O)c2ccc(S(N)(=O)=O)cc2)c2c1C(=O)NCC1(CCOCC1)C2 [Example 101, 3-(3-ethyl-4-oxo-spiro[6,8-dihydro-5H-pyrazolo[4,3-c]azepine-7,4′-tetrahydropyran]-1-yl)propyl 4-sulfamoylbenzoate]	< 0.1
CCc1nn(C[C@@H](C)COC(=O)c2ccc(OC)c(F)c2)c2c1C(=O)NCC1(CCOCC1)C2 [Example 188, [(2R)-3-(3-ethyl-4-oxo-spiro[6,8-dihydro-5H-pyrazolo[4,3-c]azepine-7,4′-tetrahydropyran]-1-yl)-2-methyl-propyl] 3-fluoro-4-methoxy-benzoate]	< 0.1
CCc1nn(CCCOC(=O)c2cc(C#N)ccc2F)c2c1C(=O)NCC1(CCOCC1)C2 [Example 56, 3-(3-ethyl-4-oxo-spiro[6,8-dihydro-5H-pyrazolo[4,3-c]azepine-7,4′-tetrahydropyran]-1-yl)propyl 5-cyano-2-fluoro-benzoate]	< 0.1
CCc1nn(C[C@@H](C)COC(=O)c2cc(C(F)(F)F)ccc2F)c2c1C(=O)NCC1(CCOCC1)C2 [Example 220, [(2R)-3-(3-ethyl-4-oxo-spiro[6,8-dihydro-5H-pyrazolo[4,3-c]azepine-7,4′-tetrahydropyran]-1-yl)-2-methyl-propyl] 2-fluoro-5-(trifluoromethyl)benzoate]	< 0.1
CCc1nn(CCCOC(=O)C(CC)CC)c2c1C(=O)NCC1(CCOCC1)C2 [Example 11, 3-(3-ethyl-4-oxo-spiro[6,8-dihydro-5H-pyrazolo[4,3-c]azepine-7,4′-tetrahydropyran]-1-yl)propyl 2-ethylbutanoate]	< 0.1
CCc1nn(CCCOC(=O)c2ccc(C(C)=O)cc2)c2c1C(=O)NCC1(CCOCC1)C2 [Example 50, 3-(3-ethyl-4-oxo-spiro[6,8-dihydro-5H-pyrazolo[4,3-c]azepine-7,4′-tetrahydropyran]-1-yl)propyl 4-acetylbenzoate]	< 0.1
CCc1nn(CCCOC(=O)c2ccc(C(F)F)cc2)c2c1C(=O)NCC1(CCOCC1)C2 [Example 76, 3-(3-ethyl-4-oxo-spiro[6,8-dihydro-5H-pyrazolo[4,3-c]azepine-7,4′-tetrahydropyran]-1-yl)propyl 4-(difluoromethyl)benzoate]	< 0.1
CCc1nn(C[C@@H](C)COC(=O)c2cccc(F)c2Cl)c2c1C(=O)NCC1(CCOCC1)C2 [Example 201, [(2R)-3-(3-ethyl-4-oxo-spiro[6,8-dihydro-5H-pyrazolo[4,3-c]azepine-7,4′-tetrahydropyran]-1-yl)-2-methyl-propyl] 2-chloro-3-fluoro-benzoate]	< 0.1

Same assay, conditions: read-out: PDE4 IC50 range

Compound	IC50 [µM]
CCc1nn(C[C@@H](C)COC(=O)c2cccc(C(=O)N(C)C)c2)c2c1C(=O)NCC1(CCOCC1)C2 [Example 266, [(2R)-3-(3-ethyl-4-oxo-spiro[6,8-dihydro-5H-pyrazolo[4,3-c]azepine-7,4′-tetrahydropyran]-1-yl)-2-methyl-propyl] 3-(dimethylcarbamoyl)benzoate]	< 0.1
CCc1nn(CCCCOC(=O)c2ccc(S(C)(=O)=O)cc2)c2c1C(=O)NCC1(CCOCC1)C2 [Example 370, 4-(3-ethyl-4-oxo-spiro[6,8-dihydro-5H-pyrazolo[4,3-c]azepine-7,4′-tetrahydropyran]-1-yl)butyl 4-methylsulfonylbenzoate]	0.1 to 0.5
CCc1nn(CC2(COC(=O)c3cccc(OC)c3)CC2)c2c1C(=O)NCC1(CCOCC1)C2 [Example 354, [1-[(3-ethyl-4-oxo-spiro[6,8-dihydro-5H-pyrazolo[4,3-c]azepine-7,4′-tetrahydropyran]-1-yl)methyl]cyclopropyl]methyl 3-methoxybenzoate]	< 0.1
CCc1nn(CC(C)(C)COC(=O)c2ccc(C(=O)N3CCCCC3)cc2)c2c1C(=O)NCC1(CCOCC1)C2 [Example 334, [3-(3-ethyl-4-oxo-spiro[6,8-dihydro-5H-pyrazolo[4,3-c]azepine-7,4′-tetrahydropyran]-1-yl)-2,2 dimethyl-propyl] 4-(piperidine-1-carbonyl)benzoate]	< 0.1
CCc1nn(C[C@H](C)COC(=O)c2ccc(C)cc2)c2c1C(=O)NCC1(CCOCC1)C2 [Example 275, [(2S)-3-(3-ethyl-4-oxo-spiro[6,8-dihydro-5H-pyrazolo[4,3-c]azepine-7,4′-tetrahydropyran]-1-yl)-2-methyl-propyl] 4-methylbenzoate]	< 0.1
CCc1nn(C[C@@H](C)COC(=O)c2cccc(C(N)=O)c2)c2c1C(=O)NCC1(CCOCC1)C2 [Example 263, [(2R)-3-(3-ethyl-4-oxo-spiro[6,8-dihydro-5H-pyrazolo[4,3-c]azepine-7,4′-tetrahydropyran]-1-yl)-2-methyl-propyl] 3-carbamoylbenzoate]	< 0.1
CCc1nn(CC(C)(C)COC(=O)c2ccc(S(=O)(=O)N3CCN(C(C)=O)CC3)cc2)c2c1C(=O)NCC1(CCOCC1)C2 [Example 324, [3-(3-ethyl-4-oxo-spiro[6,8-dihydro-5H-pyrazolo[4,3-c]azepine-7,4′-tetrahydropyran]-1-yl)-2,2-dimethyl-propyl] 4-(4-acetylpiperazin-1-yl)sulfonylbenzoate]	< 0.1
CCc1nn(CC(C)(C)COC(=O)c2cccc(S(=O)(=O)NC)c2)c2c1C(=O)NCC1(CCOCC1)C2 [Example 313, [3-(3-ethyl-4-oxo-spiro[6,8-dihydro-5H-pyrazolo[4,3-c]azepine-7,4′-tetrahydropyran]-1-yl)-2,2-dimethyl-propyl] 3-(methylsulfamoyl)benzoate]	< 0.1

From US10906915B2, “Substituted pyrazoloazepin-4-ones and their use as phosphodiesterase inhibitors” (LEO Pharma A/S, priority 2016, dated 2021)
